Data set [1] has as its system SH-SY5Y. Briefly: Cytotoxicity against human SH-SY5Y cells assessed as cell viability at 1 to 5 uM after 24 hrs. The class given is cell-based.
Data set [2] concerns SH-SY5Y. Briefly: Neuroprotective activity against MPP-induced neurotoxicity in human SH-SY5Y cells assessed as increase in cell viability at 5 uM pretreated for 2 hrs before MPP challenge measured after 48 hrs relative to control. The class given is functional.
The subject of data set [3] is SH-SY5Y. The data set is described as follows: Neuroprotective activity against MPP-induced neurotoxicity in human SH-SY5Y cells assessed as increase in cell viability pretreated for 2 hrs before MPP challenge measured after 48 hrs. The class given is functional, cell-based.
Data set [4] deals with HCT-116. The data set is described as follows: Cytotoxicity against human HCT116 cells assessed as inhibition of cell proliferation. The class given is ADME, cell-based.
The subject of data set [5] is MCF7. Briefly: Cytotoxicity against human MCF7 cells assessed as inhibition of cell proliferation. The class given is ADME, cell-based.
Data set [6] relates to A549. Briefly: Cytotoxicity against human A549 cells assessed as inhibition of cell proliferation. The class given is ADME, cell-based.
For data set [7], the system named is AGS. The data set is described as follows: Cytotoxicity against human AGS cells assessed as inhibition of cell proliferation. The class given is ADME, cell-based.
The test system of data set [8] is HepG2. Briefly: Cytotoxicity against human HepG2 cells assessed as inhibition of cell proliferation. The class given is ADME, cell-based.
A short description of data set [9]: in vitro. The following applies: human, HCT116 cells.
Description: Cytotoxicity against human HCT116 cells assessed as inhibition of cell proliferation at 50 uM
In data set [10] the test system is SH-SY5Y. The data set is described as follows: Neuroprotective activity against MPP-induced neurotoxicity in human SH-SY5Y cells assessed as increase in cell viability at 2.5 uM pretreated for 2 hrs before MPP challenge measured after 48 hrs relative to control. Format: functional.
For data set [11], the system named is SH-SY5Y. Briefly: Neuroprotective activity against MPP-induced neurotoxicity in human SH-SY5Y cells assessed as decrease in cell viability at 5 uM pretreated for 2 hrs before MPP challenge measured after 48 hrs relative to control. Format: functional.
Data set [12] has as its system SH-SY5Y. The data set is described as follows: Cytotoxicity against human SH-SY5Y cells assessed as cell viability at 5 uM after 48 hrs. The class given is cell-based.

The structures appear in SMILES notation.

By inhibition is commonly meant the share of the control response that was lost under treatment.

Turning to `COc1cc(-c2ccccn2)nc2cnsc12`, the values for the Activity entry in data set [1], in data set [2] and in data set [3] were “Non-toxic”, 80% and “Dose-dependent effect”, respectively. Besides, the IC50 entry in data set [4], in data set [5], in data set [6], in [7] and in [8] was “Not Active” in each case.

As to `COc1cc(-c2ccccn2)nc(C#N)c1SC`, the Activity result is “Non-toxic” in data set [1], 83.3% in data set [2] and “Dose-dependent effect” in data set [3]. The IC50 result in data set [4], in [5], in data set [6], in [7] and in data set [8] was “Not Active” in each case. Besides, the inhibition at 50 µM in data set [9] stood at 7.37%.

Consider `COc1cc(-c2ccccc2)nc(/C=N/O)c1SC` [COPRISMYCIN A], for which the values for the Activity result in [1], in data set [2] and in data set [3] were “Non-toxic”, 80.3% and “Dose-dependent effect”, respectively. For the same compound, the IC50 result in data set [4], in data set [5], in data set [6], in [7] and in data set [8] was “Not Active” each time.

`COc1cc(-c2ccccc2)nc(/C=N\O)c1SC` [COPRISMYCIN B]: the Activity result is “Non-toxic” in data set [1]; 88.4% in data set [10]; 69.8% in data set [11]; “Dose-dependent effect” in [3]; “Toxic” in data set [12]. Further, the IC50 result in [4], in data set [5], in data set [6], in data set [7] and in [8] was “Not Active” each time.

These data come from ChEMBL document CHEMBL1833798, “Coprismycins A and B, neuroprotective phenylpyridines from the dung beetle-associated bacterium, Streptomyces sp” (Bioorg Med Chem Lett, 2011).
